# From patent US20160136229A1, “MATERIALS FOR POSITIVE CATHEPSIN B MODULATION AND METHODS OF USE FOR TREATING MILD COGNITIVE IMPAIRMENT (MCI), EARLY DEMENTIA, A-SYNUCLEINOPATHY, TRAUMATIC BRAIN INJURY, CARDIOMYOPATHY, EYE DISEASE AND SKIN DAMAGE” (University of North Carolina at Pembroke, priority 2013, published 2016)
# Tests used:
# [1] = test system: transgenic mouse model of Alzheimer's disease; conditions: cited from earlier work
# Fischer rats = conditions: cited from earlier work
# active cathepsin B = test: Active cathepsin B in rat organotypic heart slice cultures (Aβ-induced cardiomyopathy model); format: cell-based; conditions: 2 days of treatment, P=0.027 vs vehicle
# Description: FIG. 9. The active form of cathepsin B is reduced in the slice model of Δβ-induced cardiomyopathy. Organotypic heart slice cultures from rats were treated with the control vehicle solution or with Δβ42, the peptide that accumulates in Alzheimer's disease brains as well as in heart tissue during some forms of cardiomyopathy.
# To test for changes in cathepsin B during protein accumulation induced myopathy, heart slice cultures from rat were prepared and treated with […], the peptide that accumulates in Alzheimer's disease brains as well as in heart tissue during some forms of cardiomyopathy (Bateman et al., 2012; Sanbe et al., 2004, 2005).
Molecule,spatial learning [1],spatial memory (Fischer rats),active cathepsin B in heart slices (active cathepsin B)
CC12CC3CC(C)(C1)CC(N)(C3)C2 [memantine],improve spatial learning,failed to significantly improve,
Aβ42: the peptide that accumulates in Alzheimer's disease brains as well as in heart tissue during some forms of cardiomyopathy,,,significant decrease
